For 25 compounds, MIC results are on record in ChEMBL document CHEMBL1137144, “Synthesis and biological evaluation of novel 4"-alkoxy avermectin derivatives” (2004).

One assay deals with Artemia salina. The assay is described as follows: Minimum inhibitory concentration for growth inhibition of Artemia salina(brine shrimp) in a microplate assay. In kind it is functional.
For another assay, the system named is Caenorhabditis elegans. The assay is described as follows: Minimum inhibitory concentration for growth inhibition of Caenorhabditis elegans (free living nematode) in a microplate assay. The class given is functional.

The structures appear in SMILES notation. In brackets after ≈: the same amount, converted by molar mass.

One may read the MIC as the smallest concentration in the dilution series that meets the test's criterion for growth inhibition. The low end stands for inhibition by little substance, the high end for a need for much substance. With `CCC(C)[C@H]1O[C@]2(C=C[C@@H]1C)C[C@@H]1C[C@@H](C/C=C(\C)C(O[C@H]3C[C@H](OC)C(O[C@H]4C[C@H](OC)[C@@H](OCCBr)[C@H](C)O4)[C@H](C)O3)[C@@H](C)/C=C/C=C3\CO[C@@H]4[C@H](O)C(C)=CC(C(=O)O1)C34O)O2` (stereo not given in full), the minimum inhibitory concentration (MIC) in the assay on Artemia salina was 2 ng/mL (≈ 2.04 nM); with Caenorhabditis elegans it was 10 ng/mL (≈ 10.2 nM).
For `CCC(C)[C@H]1O[C@]2(CC[C@@H]1C)C[C@@H]1C[C@@H](C/C=C(\C)C(O[C@H]3C[C@H](OC)C(O[C@H]4C[C@H](OC)[C@@H](OCC(=O)O)[C@H](C)O4)[C@H](C)O3)[C@@H](C)/C=C/C=C3\CO[C@@H]4[C@H](O)C(C)=CC(C(=O)O1)C34O)O2` (stereo not given in full), the minimum inhibitory concentration (MIC) was 0.1 ng/mL (≈ 0.107 nM) with Artemia salina and 0.5 ng/mL (≈ 0.536 nM) against Caenorhabditis elegans.
For `CCC(C)[C@H]1O[C@]2(C=C[C@@H]1C)C[C@@H]1C[C@@H](C/C=C(\C)[C@@H](O[C@H]3C[C@H](OC)[C@@H](OCC(=O)O)[C@H](C)O3)[C@@H](C)/C=C/C=C3\CO[C@@H]4[C@H](O)C(C)=CC(C(=O)O1)C34O)O2` (stereo not given in full), in that order: 2 ng/mL (≈ 2.54 nM) and 10 ng/mL (≈ 12.7 nM).
For `CCC(C)[C@H]1O[C@]2(CC[C@@H]1C)C[C@@H]1C[C@@H](C/C=C(\C)[C@@H](O[C@H]3C[C@H](OC)[C@@H](OCC(=O)O)[C@H](C)O3)[C@@H](C)/C=C/C=C3\CO[C@@H]4[C@H](O)C(C)=CC(C(=O)O1)C34O)O2` (stereo not given in full), in that order: 10 ng/mL (≈ 12.7 nM) and 10 ng/mL (≈ 12.7 nM).
For `CCC(C)[C@H]1O[C@]2(C=C[C@@H]1C)C[C@@H]1C[C@@H](C/C=C(\C)[C@@H](OC3C[C@H](OC)[C@@H](OC4C[C@H](OC)[C@@H](OCC(=O)O)[C@H](C)O4)[C@H](C)O3)[C@@H](C)/C=C/C=C3\CO[C@@H]4[C@H](O)C(C)=C[C@@H](C(=O)O1)[C@]34O)O2` (stereo not given in full) the same measures were 0.02 ng/mL (≈ 0.0215 nM) and 0.1 ng/mL (≈ 0.107 nM).
For the compound `CCOC(=O)CO[C@H]1[C@H](C)O[C@@H](OC2[C@H](C)O[C@@H](OC3/C(C)=C/C[C@@H]4C[C@@H](C[C@]5(CC(=O)[C@H](C)[C@@H](C(C)CC)O5)O4)OC(=O)C4C=C(C)[C@@H](O)[C@H]5OC/C(=C\C=C\[C@@H]3C)C45O)C[C@@H]2OC)C[C@@H]1OC` (stereo not given in full), the results for the MIC in the assay with Artemia salina and against Caenorhabditis elegans were 2 ng/mL (≈ 2.05 nM) and 10 ng/mL (≈ 10.3 nM), respectively.
With `CCC(C)[C@H]1O[C@]2(C=C[C@@H]1C)C[C@@H]1C[C@@H](C/C=C(\C)C(O[C@H]3C[C@H](OC)C(O[C@H]4C[C@H](OC)[C@@H](OCCN=[N+]=[N-])[C@H](C)O4)[C@H](C)O3)[C@@H](C)/C=C/C=C3\CO[C@@H]4[C@H](O)C(C)=CC(C(=O)O1)C34O)O2` (stereo not given in full), the MIC against Artemia salina amounted to 0.5 ng/mL (≈ 0.531 nM); with Caenorhabditis elegans, 10 ng/mL (≈ 10.6 nM).
Take `CCC(C)[C@H]1O[C@]2(C=C[C@@H]1C)C[C@@H]1C[C@@H](C/C=C(\C)[C@@H](OC3C[C@H](OC)[C@@H](OC4C[C@H](OC)[C@@H](OCC(=O)N5CCOCC5)[C@H](C)O4)[C@H](C)O3)[C@@H](C)/C=C/C=C3\CO[C@@H]4[C@H](O)C(C)=C[C@@H](C(=O)O1)[C@]34O)O2` (stereo not given in full): the MIC with Artemia salina and against Caenorhabditis elegans was 0.5 ng/mL (≈ 0.5 nM) throughout.
For the compound `CCOC(=O)CO[C@H]1[C@H](C)O[C@@H](OC2[C@H](C)O[C@@H](OC3/C(C)=C/C[C@@H]4C[C@@H](C[C@]5(C/C(=N\OC)[C@H](C)[C@@H](C(C)CC)O5)O4)OC(=O)C4C=C(C)[C@@H](O)[C@H]5OC/C(=C\C=C\[C@@H]3C)C45O)C[C@@H]2OC)C[C@@H]1OC` (stereo not given in full), the MIC against Artemia salina and in the assay with Caenorhabditis elegans was 2 ng/mL (≈ 1.99 nM) each time.
For the compound `CCC(C)[C@H]1O[C@]2(C=C[C@@H]1C)C[C@@H]1C[C@@H](C/C=C(\C)C(O[C@H]3C[C@H](OC)C(O[C@H]4C[C@H](OC)[C@@H](OCCN5CCNCC5)[C@H](C)O4)[C@H](C)O3)[C@@H](C)/C=C/C=C3\CO[C@@H]4[C@H](O)C(C)=CC(C(=O)O1)C34O)O2` (stereo not given in full), the MIC against Artemia salina is 10 ng/mL (≈ 10.1 nM); against Caenorhabditis elegans, 50 ng/mL (≈ 50.7 nM).
For `CCC(C)[C@H]1O[C@]2(C=C[C@@H]1C)C[C@@H]1C[C@@H](C/C=C(\C)[C@@H](OC3C[C@H](OC)[C@@H](OC4C[C@H](OC)C(OCC(=O)N5CCCCC5)[C@H](C)O4)[C@H](C)O3)[C@@H](C)/C=C/C=C3\CO[C@@H]4[C@H](O)C(C)=C[C@@H](C(=O)O1)[C@]34O)O2` (stereo not given in full) the same measures were 10 ng/mL (≈ 10 nM) and 10 ng/mL (≈ 10 nM).
For `CCC(C)[C@H]1O[C@]2(C=C[C@@H]1C)C[C@@H]1C[C@@H](C/C=C(\C)C(O[C@H]3C[C@H](OC)C(O[C@H]4C[C@H](OC)[C@@H](OCCNC(C)=O)[C@H](C)O4)[C@H](C)O3)[C@@H](C)/C=C/C=C3\CO[C@@H]4[C@H](O)C(C)=CC(C(=O)O1)C34O)O2` (stereo not given in full), in that order: 10 ng/mL (≈ 10.4 nM) and 10 ng/mL (≈ 10.4 nM).
For the compound `CCOC(=O)CO[C@H]1[C@H](C)O[C@@H](O[C@@H]2/C(C)=C/C[C@@H]3C[C@@H](C[C@]4(C=C[C@H](C)[C@@H](C(C)CC)O4)O3)OC(=O)C3C=C(C)[C@@H](O)[C@H]4OC/C(=C\C=C\[C@@H]2C)C34O)C[C@@H]1OC` (stereo not given in full), the values for the MIC in the assay on Artemia salina and against Caenorhabditis elegans were 0.5 ng/mL (≈ 0.613 nM) and 2 ng/mL (≈ 2.45 nM), respectively.
For `CCC(C)[C@H]1O[C@]2(C=C[C@@H]1C)C[C@@H]1C[C@@H](C/C=C(\C)C(O[C@H]3C[C@H](OC)C(O[C@H]4C[C@H](OC)[C@@H](OC/C=N/O)[C@H](C)O4)[C@H](C)O3)[C@@H](C)/C=C/C=C3\CO[C@@H]4[C@H](O)C(C)=CC(C(=O)O1)C34O)O2` (stereo not given in full), in that order: 2 ng/mL (≈ 2.15 nM) and 2 ng/mL (≈ 2.15 nM).
Take `CCC(C)[C@H]1O[C@]2(CC[C@@H]1C)C[C@@H]1C[C@@H](C/C=C(\C)[C@@H](OC3C[C@H](OC)[C@@H](OC4C[C@H](OC)[C@@H](O)[C@H](C)O4)[C@H](C)O3)[C@@H](C)/C=C/C=C3\CO[C@@H]4[C@H](O)C(C)=C[C@@H](C(=O)O1)[C@]34O)O2` (stereo not given in full): the MIC against Artemia salina and against Caenorhabditis elegans was 2 ng/mL (≈ 2.29 nM) each time.
With `CCC(C)[C@H]1O[C@]2(C=C[C@@H]1C)C[C@@H]1C[C@@H](C/C=C(\C)C(O[C@H]3C[C@H](OC)C(O[C@H]4C[C@H](OC)[C@@H](OCCO)[C@H](C)O4)[C@H](C)O3)[C@@H](C)/C=C/C=C3\CO[C@@H]4[C@H](O)C(C)=CC(C(=O)O1)C34O)O2` (stereo not given in full), the figures for the MIC against Artemia salina and against Caenorhabditis elegans were 2 ng/mL (≈ 2.18 nM) and 10 ng/mL (≈ 10.9 nM), respectively.
For `CCC(C)[C@H]1O[C@]2(C=C[C@@H]1C)C[C@@H]1C[C@@H](C/C=C(\C)C(O[C@H]3C[C@H](OC)C(O[C@H]4C[C@H](OC)[C@@H](OCCN5CCCCC5)[C@H](C)O4)[C@H](C)O3)[C@@H](C)/C=C/C=C3\CO[C@@H]4[C@H](O)C(C)=CC(C(=O)O1)C34O)O2` (stereo not given in full), in that order: 10 ng/mL (≈ 10.2 nM) and 50 ng/mL (≈ 50.8 nM).
For `CCC(C)[C@H]1O[C@]2(C=C[C@@H]1C)C[C@@H]1C[C@@H](C/C=C(\C)C(O[C@H]3C[C@H](OC)C(O[C@H]4C[C@H](OC)[C@@H](OCCN5CCOCC5)[C@H](C)O4)[C@H](C)O3)[C@@H](C)/C=C/C=C3\CO[C@@H]4[C@H](O)C(C)=CC(C(=O)O1)C34O)O2` (stereo not given in full) the same measures were 2 ng/mL (≈ 2.03 nM) and 10 ng/mL (≈ 10.1 nM).
On to `CCC(C)[C@H]1O[C@]2(C=C[C@@H]1C)C[C@@H]1C[C@@H](C/C=C(\C)C(O[C@H]3C[C@H](OC)C(O[C@H]4C[C@H](OC)[C@@H](OCCN)[C@H](C)O4)[C@H](C)O3)[C@@H](C)/C=C/C=C3\CO[C@@H]4[C@H](O)C(C)=CC(C(=O)O1)C34O)O2` (stereo not given in full), for which the values for the MIC in the assay with Artemia salina and in the assay with Caenorhabditis elegans were 10 ng/mL (≈ 10.9 nM) and 50 ng/mL (≈ 54.6 nM), respectively.
In the case of `CCOC(=O)CO[C@H]1[C@H](C)O[C@@H](OC2[C@H](C)O[C@@H](OC3/C(C)=C/C[C@@H]4C[C@@H](C[C@]5(CC[C@H](C)[C@@H](C(C)CC)O5)O4)OC(=O)C4C=C(C)[C@@H](O)[C@H]5OC/C(=C\C=C\[C@@H]3C)C45O)C[C@@H]2OC)C[C@@H]1OC` (stereo not given in full), the MIC against Artemia salina was 0.5 ng/mL (≈ 0.52 nM); against Caenorhabditis elegans it was 2 ng/mL (≈ 2.08 nM).
Consider `CCC(C)[C@H]1O[C@]2(C=C[C@@H]1C)C[C@@H]1C[C@@H](C/C=C(\C)C(O[C@H]3C[C@H](OC)C(O[C@H]4C[C@H](OC)[C@@H](OC/C=N/OC)[C@H](C)O4)[C@H](C)O3)[C@@H](C)/C=C/C=C3\CO[C@@H]4[C@H](O)C(C)=CC(C(=O)O1)C34O)O2` (stereo not given in full), for which the MIC against Artemia salina was 0.5 ng/mL (≈ 0.53 nM); against Caenorhabditis elegans, 2 ng/mL (≈ 2.12 nM).
For `CCOC(=O)CO[C@H]1[C@H](C)OC(O[C@H]2[C@H](C)O[C@@H](OC3/C(C)=C/C[C@@H]4C[C@@H](C[C@]5(C=C[C@H](C)[C@@H](C(C)CC)O5)O4)OC(=O)[C@@H]4C=C(C)[C@@H](O)[C@H]5OC/C(=C\C=C\[C@@H]3C)[C@]54O)C[C@@H]2OC)C[C@@H]1OC` (stereo not given in full) the same measures were 0.5 ng/mL (≈ 0.521 nM) and 2 ng/mL (≈ 2.09 nM).
For `CCOC(=O)CO[C@H]1[C@H](C)O[C@@H](O[C@@H]2/C(C)=C/C[C@@H]3C[C@@H](C[C@]4(CC[C@H](C)[C@@H](C(C)CC)O4)O3)OC(=O)C3C=C(C)[C@@H](O)[C@H]4OC/C(=C\C=C\[C@@H]2C)C34O)C[C@@H]1OC` (stereo not given in full), in that order: 0.5 ng/mL (≈ 0.612 nM) and 2 ng/mL (≈ 2.45 nM).
In the case of `CCOC(=O)CO[C@H]1[C@H](C)O[C@@H](OC2[C@H](C)O[C@@H](OC3/C(C)=C/C[C@@H]4C[C@@H](C[C@]5(CC(O)[C@H](C)[C@@H](C(C)CC)O5)O4)OC(=O)C4C=C(C)[C@@H](O)[C@H]5OC/C(=C\C=C\[C@@H]3C)C45O)C[C@@H]2OC)C[C@@H]1OC` (stereo not given in full), the MIC was determined as 0.5 ng/mL (≈ 0.512 nM) against Artemia salina and 2 ng/mL (≈ 2.05 nM) against Caenorhabditis elegans.
For `CC[C@H](C)[C@H]1O[C@]2(C=C[C@@H]1C)C[C@@H]1C[C@@H](C/C=C(\C)[C@@H](O[C@H]3C[C@H](OC)[C@@H](O[C@H]4C[C@H](OC)[C@@H](O)[C@H](C)O4)[C@H](C)O3)[C@@H](C)/C=C/C=C3\CO[C@@H]4[C@H](O)C(C)=C[C@@H](C(=O)O1)[C@]34O)O2` [ABAMECTIN COMPONENT B1A] the same measures were 0.5 ng/mL (≈ 0.573 nM) and 2 ng/mL (≈ 2.29 nM).
